Read-outs that look alike come from different tables or passages of the source.

One may read the IC50 as the concentration that gives 50% inhibition. One may read the MIC as the smallest concentration in the dilution series that meets the test's criterion for growth inhibition. A high value points to a need for much substance.

For data set [1], the target named is T1, LasB (Pseudomonas aeruginosa, UniProt Q02RJ6). Particulars: read-out: IC50 (LasB); literature inhibitor; cited from earlier work.
T1 sequence (Q02RJ6 198-498): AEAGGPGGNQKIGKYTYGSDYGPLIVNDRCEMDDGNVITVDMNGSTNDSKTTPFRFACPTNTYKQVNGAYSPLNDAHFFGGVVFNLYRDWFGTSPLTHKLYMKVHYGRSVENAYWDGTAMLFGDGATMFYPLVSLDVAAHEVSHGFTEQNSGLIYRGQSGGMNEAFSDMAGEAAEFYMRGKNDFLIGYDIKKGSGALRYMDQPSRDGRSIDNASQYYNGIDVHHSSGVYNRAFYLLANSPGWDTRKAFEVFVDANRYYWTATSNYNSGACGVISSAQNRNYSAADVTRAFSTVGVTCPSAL
The target in data set [2] is peptidase domain of ColH (ColH-PD) (Hathewaya histolytica, UniProt Q46085). Description: biochemical. The note with it: read-out: ColH-PD % inhibition @ 1 μM. Set-up: species or system Clostridium histolyticum.
Chain of peptidase domain of ColH (ColH-PD) (Q46085 331-721 limits assumed): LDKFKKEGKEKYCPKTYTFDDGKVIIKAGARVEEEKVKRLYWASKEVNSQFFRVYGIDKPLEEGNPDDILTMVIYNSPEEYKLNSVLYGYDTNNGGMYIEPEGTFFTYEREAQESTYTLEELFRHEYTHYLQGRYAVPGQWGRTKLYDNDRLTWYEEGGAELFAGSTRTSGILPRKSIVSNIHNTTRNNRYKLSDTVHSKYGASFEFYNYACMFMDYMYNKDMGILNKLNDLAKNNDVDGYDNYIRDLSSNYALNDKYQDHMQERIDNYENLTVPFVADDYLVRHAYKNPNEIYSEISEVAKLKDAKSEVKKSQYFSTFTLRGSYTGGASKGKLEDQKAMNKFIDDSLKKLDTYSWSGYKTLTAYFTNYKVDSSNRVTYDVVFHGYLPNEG
Another data set deals with T2, MMP-1 (Homo sapiens, UniProt P03956).
T2 sequence (P03956 100-469): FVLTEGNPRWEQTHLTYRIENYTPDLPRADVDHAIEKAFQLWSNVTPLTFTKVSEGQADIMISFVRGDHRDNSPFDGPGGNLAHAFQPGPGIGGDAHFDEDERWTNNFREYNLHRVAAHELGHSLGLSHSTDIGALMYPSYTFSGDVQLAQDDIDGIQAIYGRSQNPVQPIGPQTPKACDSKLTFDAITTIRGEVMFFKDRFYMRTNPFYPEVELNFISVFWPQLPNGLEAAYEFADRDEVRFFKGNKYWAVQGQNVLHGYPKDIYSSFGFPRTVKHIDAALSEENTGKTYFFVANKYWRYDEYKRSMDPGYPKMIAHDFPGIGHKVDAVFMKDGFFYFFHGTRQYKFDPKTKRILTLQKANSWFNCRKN
Kind of data set: MMP-1 off-target inhibition. The class given is biochemical. The note with it: read-out: MMP-1 % inhibition @ 100 μM; 100 μM compound. The text has this:
(§1) Previously, we described N-aryl mercaptoacetamides with high selectivity for the bacterial over a broad range of human MMPs.[29],[30] MMPs are calcium-dependent zinc metalloproteases that play a pivotal role in numerous biochemical processes in humans.[39],[40] Based on the depth of their S1′ binding pocket, MMPs can be divided into three classes: deep (e.g., MMP-3 and -14), intermediate (e.g., MMP-2 and -8), and shallow (e.g., MMP-1 and -7). With the aim to explore the interactions of our inhibitors with all three pocket types, which could help us to assess potential effects on other not-tested representatives, we chose a panel of six MMPs, comprising two members of each class. In addition, HDAC-3, HDAC-8, and TACE (ADAM-17)—enzymes involved in gene expression and the processing of TNF-α,[41],[42] respectively—were selected as important additional human off-targets.

Another data set deals with T3, MMP-2 (Homo sapiens, UniProt P08253).
T3 sequence (P08253 110-660): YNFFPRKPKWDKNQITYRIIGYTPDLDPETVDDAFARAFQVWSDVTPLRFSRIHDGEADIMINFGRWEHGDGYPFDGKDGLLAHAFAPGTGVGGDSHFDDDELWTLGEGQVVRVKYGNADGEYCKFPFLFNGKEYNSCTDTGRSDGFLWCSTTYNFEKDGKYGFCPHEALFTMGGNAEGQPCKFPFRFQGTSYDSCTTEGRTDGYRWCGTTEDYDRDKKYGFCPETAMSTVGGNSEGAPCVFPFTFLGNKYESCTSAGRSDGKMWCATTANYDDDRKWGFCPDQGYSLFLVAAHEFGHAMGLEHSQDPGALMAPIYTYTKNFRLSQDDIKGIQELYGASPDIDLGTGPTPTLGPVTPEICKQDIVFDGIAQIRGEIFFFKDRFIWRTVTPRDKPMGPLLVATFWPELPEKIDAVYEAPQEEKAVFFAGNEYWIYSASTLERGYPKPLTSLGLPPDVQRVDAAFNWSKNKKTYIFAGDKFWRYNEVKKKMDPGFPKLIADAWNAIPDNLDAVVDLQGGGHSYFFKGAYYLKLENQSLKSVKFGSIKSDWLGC
Description: MMP-2 off-target inhibition. The class given is biochemical.
Description: as §1

The target in the next data set is MMP-3 (Homo sapiens, UniProt P08254). Kind of data set: MMP-3 off-target inhibition. The format is biochemical. Particulars: read-out: MMP-3 % inhibition @ 100 μM; 100 μM compound.
Chain of MMP-3 (P08254 100-477): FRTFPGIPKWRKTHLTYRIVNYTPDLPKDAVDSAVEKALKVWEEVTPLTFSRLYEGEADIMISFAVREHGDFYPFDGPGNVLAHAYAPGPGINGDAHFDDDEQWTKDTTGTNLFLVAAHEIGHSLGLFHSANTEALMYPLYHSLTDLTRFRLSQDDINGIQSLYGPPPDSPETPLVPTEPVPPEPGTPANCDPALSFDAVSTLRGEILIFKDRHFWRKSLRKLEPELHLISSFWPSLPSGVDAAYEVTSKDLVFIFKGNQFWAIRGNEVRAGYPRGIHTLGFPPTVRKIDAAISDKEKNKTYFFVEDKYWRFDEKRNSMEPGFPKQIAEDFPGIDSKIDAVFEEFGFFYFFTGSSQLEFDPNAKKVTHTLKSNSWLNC
Description: as §1

Another data set addresses T4, MMP-7 (Homo sapiens, UniProt P09237).
T4 sequence (P09237 95-267): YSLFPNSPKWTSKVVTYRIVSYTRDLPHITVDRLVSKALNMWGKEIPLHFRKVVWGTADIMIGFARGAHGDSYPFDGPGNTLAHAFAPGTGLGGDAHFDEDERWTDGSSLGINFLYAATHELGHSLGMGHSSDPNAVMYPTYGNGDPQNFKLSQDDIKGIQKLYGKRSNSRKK
Kind of data set: MMP-7 off-target inhibition. Particulars: read-out: MMP-7 % inhibition @ 100 μM; 100 μM compound. The class given is biochemical.
Description: as §1

The target in a further data set is MMP-8 (Homo sapiens, UniProt P22894). Description: MMP-8 off-target inhibition. The format is biochemical.
Chain of MMP-8 (P22894 101-467): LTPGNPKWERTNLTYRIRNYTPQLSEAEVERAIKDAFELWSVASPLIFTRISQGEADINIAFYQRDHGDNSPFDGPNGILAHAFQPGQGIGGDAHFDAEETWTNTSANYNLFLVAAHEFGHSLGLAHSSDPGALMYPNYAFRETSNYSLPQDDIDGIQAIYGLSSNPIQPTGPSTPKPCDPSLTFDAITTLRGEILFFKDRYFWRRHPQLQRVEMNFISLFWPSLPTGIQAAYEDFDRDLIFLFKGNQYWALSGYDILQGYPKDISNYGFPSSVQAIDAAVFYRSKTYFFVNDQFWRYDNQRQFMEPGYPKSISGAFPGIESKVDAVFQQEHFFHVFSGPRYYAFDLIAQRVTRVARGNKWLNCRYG
Description: as §1

Another data set deals with MMP-14 (Homo sapiens, UniProt P50281). Kind of data set: MMP-14 off-target inhibition. The format is biochemical.
Description: as §1

The target in another data set is T5, HDAC-3 (Homo sapiens, UniProt O15379).
T5 construct: purchased Sigma-Aldrich (Saint Louis, MO)
T5 sequence (O15379 whole entry): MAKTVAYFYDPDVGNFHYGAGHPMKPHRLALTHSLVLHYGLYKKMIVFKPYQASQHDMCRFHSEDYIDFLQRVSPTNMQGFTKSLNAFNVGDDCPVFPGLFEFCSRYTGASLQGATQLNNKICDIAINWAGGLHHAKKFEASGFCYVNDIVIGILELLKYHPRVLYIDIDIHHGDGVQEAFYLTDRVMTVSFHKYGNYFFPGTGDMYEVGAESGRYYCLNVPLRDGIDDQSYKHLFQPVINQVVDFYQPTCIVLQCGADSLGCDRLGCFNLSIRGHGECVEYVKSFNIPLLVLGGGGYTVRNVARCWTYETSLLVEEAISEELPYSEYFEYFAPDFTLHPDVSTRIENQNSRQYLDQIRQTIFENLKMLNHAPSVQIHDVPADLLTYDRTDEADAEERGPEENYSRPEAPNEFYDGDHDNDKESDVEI
T5 sequence (Q9Y618 395-489 partner limits assumed): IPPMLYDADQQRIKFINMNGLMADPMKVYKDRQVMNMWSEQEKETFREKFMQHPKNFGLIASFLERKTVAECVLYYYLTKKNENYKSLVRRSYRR
Kind of data set: HDAC-3 inhibitor screening kit. The class given is biochemical.
Description: as §1

The target of the next data set is T6, HDAC-8 (Homo sapiens, UniProt Q9BY41).
T6 construct: purchased Sigma-Aldrich (Saint Louis, MO)
T6 sequence (Q9BY41 1-377): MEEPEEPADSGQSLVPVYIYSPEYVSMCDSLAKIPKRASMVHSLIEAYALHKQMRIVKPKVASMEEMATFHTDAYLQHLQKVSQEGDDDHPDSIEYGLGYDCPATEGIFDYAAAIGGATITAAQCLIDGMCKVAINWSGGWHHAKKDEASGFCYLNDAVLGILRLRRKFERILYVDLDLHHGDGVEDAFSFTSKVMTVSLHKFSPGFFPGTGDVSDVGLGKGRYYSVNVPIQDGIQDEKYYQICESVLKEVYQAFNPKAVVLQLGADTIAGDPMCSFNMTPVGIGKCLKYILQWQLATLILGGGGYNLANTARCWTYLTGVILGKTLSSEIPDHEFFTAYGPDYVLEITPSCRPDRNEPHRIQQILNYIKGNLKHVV
Kind of data set: HDAC-8 inhibitor screening kit. The format is biochemical.
Description: as §1

Another data set has as its target T7, TACE (ADAM-17) (Homo sapiens, UniProt P78536).
T7 construct: purchased Sigma-Aldrich (Saint Louis, MO)
Kind of data set: TACE inhibitor screening kit. The format is biochemical.
Description: as §1

In data set [3] the test system is P. aeruginosa strain PA14. Kind of data set: Bacterial growth inhibition assay (MIC) P. aeruginosa. The format is cell-based, Pseudomonas aeruginosa.
Data set [4] deals with T1, LasB.
Data set [5] is described as follows: in vitro. The note with it: human, HepG2 cells (hepatocellular carcinoma).
A short description of data set [6]: in vitro. Particulars: human, HEK293 cells (embryonal kidney).
The nature of data set [7]: in vitro. Particulars: human, A549 cells (lung carcinoma).
The target in data set [8] is T1, LasB. Kind of data set: biochemical. The note with it: LasB IC50, FRET-based assay.

T7 sequence (P78536 215-824): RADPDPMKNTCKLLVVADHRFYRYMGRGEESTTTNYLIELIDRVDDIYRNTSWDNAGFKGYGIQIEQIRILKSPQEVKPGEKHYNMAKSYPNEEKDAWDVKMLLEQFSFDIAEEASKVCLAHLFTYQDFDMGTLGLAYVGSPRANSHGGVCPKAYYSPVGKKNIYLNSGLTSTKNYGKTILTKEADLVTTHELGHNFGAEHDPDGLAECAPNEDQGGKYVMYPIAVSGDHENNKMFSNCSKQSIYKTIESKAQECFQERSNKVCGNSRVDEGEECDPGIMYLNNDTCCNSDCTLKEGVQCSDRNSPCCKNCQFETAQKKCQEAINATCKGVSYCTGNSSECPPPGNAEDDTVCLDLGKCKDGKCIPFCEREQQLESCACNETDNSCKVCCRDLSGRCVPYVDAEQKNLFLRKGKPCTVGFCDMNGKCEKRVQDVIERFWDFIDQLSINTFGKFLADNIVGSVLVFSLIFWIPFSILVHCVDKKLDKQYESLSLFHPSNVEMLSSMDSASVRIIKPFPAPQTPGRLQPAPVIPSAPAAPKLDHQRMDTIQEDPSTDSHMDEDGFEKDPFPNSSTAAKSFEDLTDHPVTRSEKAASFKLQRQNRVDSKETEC

Turning to `Cc1c(O)c(=S)ccn1Cc1ccc(-c2ccccc2)cc1` [Compound 1], the IC50 on LasB [1] was 2.73 ± 0.03 µM.
As to `O=C1CC(S)C(=O)N1c1ccc(Cl)c(Cl)c1` (stereo not drawn) [Compound 13, 1-(3,4-Dichlorophenyl)-3-mercaptopyrrolidine-2,5-dione], the inhibition at 1 µM in [2] turned out to be 12 ± 2%. Besides, the inhibition at 100 µM on MMP-1 is less than 10%; at MMP-2 (read-out: MMP-2 % inhibition @ 100 μM, 100 μM compound) it was 39 ± 32%; on MMP-3, less than 10%; on MMP-7, less than 10%; at MMP-8 (read-out: MMP-8 % inhibition @ 100 μM, 100 μM compound), 84 ± 8%; on MMP-14 (read-out: MMP-14 % inhibition @ 100 μM, 100 μM compound), less than 10%. The inhibition at 50 µM at MMP-2 (50 µM compound, read-out: MMP-2 % inh @50µM) was less than 10%; at MMP-8 (50 µM compound, read-out: MMP-8 % inh @50µM) it was less than 10%; on MMP-14 (50 µM compound, read-out: MMP-14 % inh @50µM), less than 10%. The IC50 against HDAC-3 was greater than 100 µM; at HDAC-8, greater than 100 µM; on TACE (ADAM-17), 5.2 ± 0.6 µM; in the data set “in vitro [5]” it was greater than 100 µM; in “in vitro [6]”, greater than 100 µM; in the data set “in vitro [7]”, greater than 100 µM. Inhibition against LasB [8] was half-maximal at 3.4 ± 0.2 µM (IC50). For the same molecule, the MIC in [3] and in data set [3] (Pseudomonas aeruginosa) was greater than 100 µM each time. For the same molecule, the “improved activity against LasB compared to previous hit 5” value on LasB [4] is “two-fold”.

Source of the values: article PMC7429951 (Journal of Medicinal Chemistry, 2020).
